# Target: T1, BRD4 proteins (Homo sapiens, UniProt O60885)
# T1 construct: endogenous in cells; host or cells: MM.1S
# Assay: Degradation of BRD4 protein in MM.1S cell lines (Western blot densitometry)
# Assay type: cell-based
# Conditions: MM.1S cells, 10 μM, 24 hours
# Summary of the method: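 MM.1S cells in RPMI-1640 with 10% FBS were treated with each degrader at 10 μM for 24 h. RIPA lysates were analysed by SDS-PAGE/Western blot with β-actin as reference, and BRD4 band densitometry was scored as reduction <40% (+), 40-<70% (++) or ≥70% (+++).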
row,Structure (SMILES),BRD4 degrading capacity (%)
1,"COC(=O)c1ccc(N2CCN(C(=O)C[C@@H]3N=C(c4ccc(Cl)cc4)c4c(sc(C)c4C)-n4c(C)nnc43)CC2)cc1C#CCN.Cl [5-7′, methyl (S)-2-(3-aminoprop-1-yn-1-yl)-4-(4-(2-(4-(4-chlorophenyl)-2,3,9-trimethyl-6H-thieno[3,2-f][1,2,4]triazolo[4,3-a][1,4]diazepin-6-yl)acetyl)piperazin-1-yl)benzoate hydrochloride]",+ (the degrading capacity of each BRD4 degrader was reduced by less than 40%)
2,"Cc1sc2c(c1C)C(c1ccc(Cl)cc1)=N[C@@H](CC(=O)NCCCC(=O)Nc1ccc(C#CCN)c(CO)c1)c1nnc(C)n1-2.Cl [5-8′, (S)—N-(4-(3-aminoprop-1-yn-1-yl)-3-(hydroxymethyl)phenyl)-4-(2-(4-(4-chlorophenyl)-2,3,9-trimethyl-6H-thieno[3,2-f][1,2,4]triazolo[4,3-a][1,4]diazepin-6-yl)acetamido)butanamide hydrochloride]",++ (the degrading capacity was reduced by 40% to 70% (exclusive of 70))
3,"Cc1sc2c(c1C)C(c1ccc(Cl)cc1)=N[C@@H](CC(=O)NCCCCC(=O)Nc1ccc(C#CCN)c(CO)c1)c1nnc(C)n1-2.Cl [5-9′, (S)—N-(4-(3-aminoprop-1-yn-1-yl)-3-(hydroxymethyl)phenyl)-5-(2-(4-(4-chlorophenyl)-2,3,9-trimethyl-6H-thieno[3,2-f][1,2,4]triazolo[4,3-a][1,4]diazepin-6-yl)acetamido)pentanamide hydrochloride]",++ (the degrading capacity was reduced by 40% to 70% (exclusive of 70))
4,"COC(=O)c1ccc(OCCCCNC(=O)C[C@@H]2N=C(c3ccc(Cl)cc3)c3c(sc(C)c3C)-n3c(C)nnc32)cc1C#CCN.Cl [5-12′, methyl (S)-2-(3-aminoprop-1-yn-1-yl)-4-(4-(2-(4-(4-chlorophenyl)-2,3,9-trimethyl-6H-thieno[3,2-f][1,2,4]triazolo[4,3-a][1,4]diazepin-6-yl)acetamido)butoxy)benzoate hydrochloride]",+++ (the degrading capacity was reduced by 70% or more)
5,"COC(=O)c1ccc(C(=O)NCCCNC(=O)C[C@@H]2N=C(c3ccc(Cl)cc3)c3c(sc(C)c3C)-n3c(C)nnc32)cc1C#CCN.Cl [5-18′, methyl (S)-2-(3-aminoprop-1-yn-1-yl)-4-((3-(2-(4-(4-chlorophenyl)-2,3,9-trimethyl-6H-thieno[3,2-f][1,2,4]triazolo[4,3-a][1,4]diazepin-6-yl)acetamido)propyl)carbamoyl)benzoate hydrochloride]",+++ (the degrading capacity was reduced by 70% or more)
6,"COC(=O)c1ccc(C(=O)NC2CCN(C(=O)C[C@@H]3N=C(c4ccc(Cl)cc4)c4c(sc(C)c4C)-n4c(C)nnc43)CC2)cc1C#CCN.Cl [5-22′, methyl (S)-2-(3-aminoprop-1-yn-1-yl)-4-((1-(2-(4-(4-chlorophenyl)-2,3,9-trimethyl-6H-thieno[3,2-f][1,2,4]triazolo[4,3-a][1,4]diazepin-6-yl)acetyl)piperidin-4-yl)carbamoyl)benzoate hydrochloride]",+++ (the degrading capacity was reduced by 70% or more)
7,"COC(=O)c1ccc(NC(=O)C2CCN(C(=O)C[C@@H]3N=C(c4ccc(Cl)cc4)c4c(sc(C)c4C)-n4c(C)nnc43)CC2)cc1C#CCN.Cl [5-23′, methyl (S)-2-(3-aminoprop-1-yn-1-yl)-4-(1-(2-(4-(4-chlorophenyl)-2,3,9-trimethyl-6H-thieno[3,2-f][1,2,4]triazolo[4,3-a][1,4]diazepin-6-yl)acetyl)piperidine-4-carboxamido)benzoate hydrochloride]",+++ (the degrading capacity was reduced by 70% or more)
8,"COC(=O)c1ccc(NC(=O)CCNC(=O)C2CCN(C(=O)C[C@@H]3N=C(c4ccc(Cl)cc4)c4c(sc(C)c4C)-n4c(C)nnc43)CC2)cc1C#CCN.Cl [5-25′, methyl (S)-2-(3-aminoprop-1-yn-1-yl)-4-(3-(1-(2-(4-(4-chlorophenyl)-2,3,9-trimethyl-6H-thieno[3,2-f][1,2,4]triazolo[4,3-a][1,4]diazepin-6-yl)acetyl)piperidine-4-carboxamido)propanamido)benzoate hydrochloride]",+++ (the degrading capacity was reduced by 70% or more)
9,"COC(=O)c1ccc(NC(=O)CCCNC(=O)C2CCN(C(=O)C[C@@H]3N=C(c4ccc(Cl)cc4)c4c(sc(C)c4C)-n4c(C)nnc43)CC2)cc1C#CCN.Cl [5-26′, methyl (S)-2-(3-aminoprop-1-yn-1-yl)-4-(4-(1-(2-(4-(4-chlorophenyl)-2,3,9-trimethyl-6H-thieno[3,2-f][1,2,4]triazolo[4,3-a][1,4]diazepin-6-yl)acetyl)piperidine-4-carboxamido)butanamido)benzoate hydrochloride]",++ (the degrading capacity was reduced by 40% to 70% (exclusive of 70))
10,"COC(=O)c1ccc(C(=O)NCCCNC(=O)C2CCN(C(=O)C[C@@H]3N=C(c4ccc(Cl)cc4)c4c(sc(C)c4C)-n4c(C)nnc43)CC2)cc1C#CCN.Cl [5-27′, methyl (S)-2-(3-aminoprop-1-yn-1-yl)-4-((3-(1-(2-(4-(4-chlorophenyl)-2,3,9-trimethyl-6H-thieno[3,2-f][1,2,4]triazolo[4,3-a][1,4]diazepin-6-yl)acetyl)piperidine-4-carboxamido)propyl)carbamoyl)benzoate hydrochloride]",++ (the degrading capacity was reduced by 40% to 70% (exclusive of 70))
11,"COC(=O)c1ccc(C#CCNC(=O)C2CCN(C(=O)C[C@@H]3N=C(c4ccc(Cl)cc4)c4c(sc(C)c4C)-n4c(C)nnc43)CC2)cc1C#CCN.Cl [5-28′, methyl (S)-2-(3-aminoprop-1-yn-1-yl)-4-(3-(1-(2-(4-(4-chlorophenyl)-2,3,9-trimethyl-6H-thieno[3,2-f][1,2,4]triazolo[4,3-a][1,4]diazepin-6-yl)acetyl)piperidine-4-carboxamido)prop-1-yn-1-yl)benzoate hydrochloride]",+++ (the degrading capacity was reduced by 70% or more)
12,"COC(=O)c1ccc(N2CCN(CC3CCN(C(=O)C[C@@H]4N=C(c5ccc(Cl)cc5)c5c(sc(C)c5C)-n5c(C)nnc54)CC3)CC2)cc1C#CCN.Cl [5-29′, methyl (S)-2-(3-aminoprop-1-yn-1-yl)-4-(4-((1-(2-(4-(4-chlorophenyl)-2,3,9-trimethyl-6H-thieno[3,2-f][1,2,4]triazolo[4,3-a][1,4]diazepin-6-yl)acetyl)piperidin-4-yl)methyl)piperazin-1-yl)benzoate hydrochloride]",+++ (the degrading capacity was reduced by 70% or more)
13,"COC(=O)c1ccc(N2CCN(C(=O)CCNC(=O)C[C@@H]3N=C(c4ccc(Cl)cc4)c4c(sc(C)c4C)-n4c(C)nnc43)CC2)cc1C#CCN.Cl [5-32′, methyl (S)-2-(3-aminoprop-1-yn-1-yl)-4-(4-(3-(2-(4-(4-chlorophenyl)-2,3,9-trimethyl-6H-thieno[3,2-f][1,2,4]triazolo[4,3-a][1,4]diazepin-6-yl)acetamido)propanoyl)piperazin-1-yl)benzoate hydrochloride]",+++ (the degrading capacity was reduced by 70% or more)
